From ChEMBL document CHEMBL3627641, “Identification of a new p53/MDM2 inhibitor motif inspired by studies of chlorofusin” (Bioorg Med Chem Lett, 2015)

Experiments:
SJSA-1 = assay: Cytotoxic activity against human SJSA1 cells; type: functional, cell-based
A-375 = assay: Cytotoxic activity against human A375 cells; type: functional, cell-based
[1] = Homo sapiens, SJSA-1, read-out: IC50

SMILES	IC50 (SJSA-1; [1])	IC50 (A-375; a-375)	IC50 (A-375; Homo sapiens, A-375, read-out: IC50)	IC50 (SJSA-1; sjsa-1)
Cc1ccc(-c2cn(CCC[C@H](NC(=O)OCC3c4ccccc4-c4ccccc43)C(=O)O)nn2)cc1	33.1 µM	Not Active		
O=C(N[C@@H](CCCn1cc(-c2ccc(C(F)(F)F)cc2)nn1)C(=O)O)OCC1c2ccccc2-c2ccccc21	31.2 µM		49.3 µM	
O=C(N[C@@H](CCCn1cc(-c2ccc(Cl)cc2)nn1)C(=O)O)OCC1c2ccccc2-c2ccccc21		Not Active		Not Active
O=C(N[C@@H](CCCn1cc(-c2ccc(Br)cc2)nn1)C(=O)O)OCC1c2ccccc2-c2ccccc21		Not Active		Not Active
O=C(N[C@@H](CCCn1cc(-c2ccc(I)cc2)nn1)C(=O)O)OCC1c2ccccc2-c2ccccc21		Not Active		Not Active
COc1ccc(-c2cn(CCC[C@H](NC(=O)OCC3c4ccccc4-c4ccccc43)C(=O)O)nn2)cc1		Not Active		Not Active
CC(C)(C)OC(=O)Nc1ccc(-c2cn(CCC[C@H](NC(=O)OCC3c4ccccc4-c4ccccc43)C(=O)O)nn2)cc1		Not Active		Not Active
